Data as given in patent US20240228547A1, “POLYPEPTIDE FOR RESISTING NOVEL CORONAVIRUS AND APPLICATION THEREOF” (INSTITUTE OF MICROBIOLOGY, CHINESE ACADEMY OF SCIENCES, priority 2021, published 2024).

Tests used:
[1] = tested on: pseudovirus of SARS-CoV-2 variant Gamma (P.1); details: P.1 (Gamma) pseudovirus; for IC50: read-out: IC50, inhibitory effect on pseudovirus, Hela hACE2 cells
[2] = tested on: pseudovirus of SARS-CoV-2 variant Delta (B.1.617.2); details: B.1.617.2 (Delta) pseudovirus; for IC50: read-out: IC50, inhibitory effect on pseudovirus, Hela hACE2 cells
[3] = tested on: pseudovirus of SARS-CoV-2 variant Kappa (B.1.617.1); details: for Increase multiple (fold increase in the inhibitory effect compared to the polypeptide P3) / IC50: B.1.617.1 (Kappa) pseudovirus; for IC50: read-out: IC50, inhibitory effect on pseudovirus, Hela hACE2 cells
[4] = tested on: SARS-COV-2 original strain and its various variants; assay type: cell-based
[5] = tested on: pseudovirus of SARS-CoV-2 variant D614G; details: for IC50: pseudovirus of variant D614G
[6] = tested on: pseudovirus of SARS-CoV-2 variant Beta (B.1.351); details: B.1.351 (Beta) pseudovirus; for IC50: read-out: IC50, inhibitory effect on pseudovirus, Hela hACE2 cells
[7] = tested on: pseudovirus of SARS-CoV-2 variant Alpha (B.1.1.7); details: B.1.1.7 (Alpha) pseudovirus; for IC50: read-out: IC50, inhibitory effect on pseudovirus, Hela hACE2 cells

CC[C@H](C)[C@H](NC(=O)CNC(=O)[C@H](CO)NC(=O)[C@@H](NC(=O)[C@H](CC(=O)O)NC(=O)CNC(=O)[C@H](Cc1ccccc1)NC(=O)[C@H](CCCCN)NC(=O)[C@@H](N)C(C)C)[C@@H](C)CC)C(=O)N[C@@H](CC(N)=O)C(=O)N[C@@H](C)C(=O)N[C@@H](CO)C(=O)N[C@H](C(=O)N[C@H](C(=O)N[C@@H](CC(N)=O)C(=O)N[C@H](C(=O)N[C@@H](CCCCN)C(=O)N[C@@H](CCC(=O)O)C(=O)N[C@@H](CCC(=O)O)C(=O)N[C@H](C(=O)N[C@@H](CC(=O)O)C(=O)N[C@@H](CCCNC(=N)N)C(=O)N[C@@H](CC(C)C)C(=O)N[C@@H](Cc1ccc(O)cc1)C(=O)N[C@@H](CCC(=O)O)C(=O)N[C@H](C(=O)N[C@H](C(=O)N[C@@H](CCCCN)C(=O)N[C@@H](CC(N)=O)C(=O)N[C@@H](CC(C)C)C(=O)N[C@@H](CC(N)=O)C(=O)N[C@@H](CCC(=O)O)C(=O)N[C@@H](CO)C(=O)N[C@@H](CC(C)C)C(=O)N[C@H](C(=O)N[C@@H](CC(=O)O)C(=O)N[C@@H](CC(C)C)C(=O)N[C@@H](CCC(N)=O)C(=O)N[C@@H](CCC(=O)O)C(=O)N[C@@H](CC(C)C)C(=O)O)[C@@H](C)CC)C(C)C)C(C)C)[C@@H](C)CC)[C@@H](C)CC)C(C)C)C(C)C [Polypeptide P3-3]
Increase multiple (fold increase in the inhibitory effect compared to the polypeptide P3) [1]: 7.2 | IC50 [1]: 110 nM | Increase multiple (fold increase in the inhibitory effect compared to the polypeptide P3) [2]: 2.4 | IC50 [2]: 320 nM | Increase multiple (fold increase in the inhibitory effect compared to the polypeptide P3) [3]: 1.8 | IC50 [3]: 430 nM | inhibitory effect compared with the polypeptide P3 (in words) [4]: most obviously improved | Increase multiple (fold increase in the inhibitory effect compared to the polypeptide P3) [5]: 5.0 | IC50 [5]: 160 nM | Increase multiple (fold increase in the inhibitory effect compared to the polypeptide P3) [6]: 7.5 | IC50 [6]: 100 nM | Increase multiple (fold increase in the inhibitory effect compared to the polypeptide P3) [7]: 2.1 | IC50 [7]: 370 nM

CC[C@H](C)[C@H](N)C(=O)N[C@@H](CO)C(=O)NCC(=O)N[C@H](C(=O)N[C@@H](CC(N)=O)C(=O)N[C@@H](C)C(=O)N[C@@H](CO)C(=O)N[C@H](C(=O)N[C@H](C(=O)N[C@@H](CC(N)=O)C(=O)N[C@H](C(=O)N[C@@H](CCCCN)C(=O)N[C@@H](CCC(=O)O)C(=O)N[C@@H](CCC(=O)O)C(=O)N[C@H](C(=O)N[C@@H](CC(=O)O)C(=O)N[C@@H](CCCNC(=N)N)C(=O)N[C@@H](CC(C)C)C(=O)N[C@@H](CC(N)=O)C(=O)N[C@@H](CCC(=O)O)C(=O)N[C@H](C(=O)N[C@@H](C)C(=O)N[C@@H](CCCCN)C(=O)N[C@@H](CC(N)=O)C(=O)N[C@@H](CC(C)C)C(=O)N[C@@H](CC(N)=O)C(=O)N[C@@H](CCC(=O)O)C(=O)N[C@@H](CO)C(=O)N[C@@H](CC(C)C)C(=O)N[C@H](C(=O)N[C@@H](CC(=O)O)C(=O)N[C@@H](CC(C)C)C(=O)N[C@@H](CCC(N)=O)C(=O)N[C@@H](CCC(=O)O)C(=O)N[C@@H](CC(C)C)C(=O)O)[C@@H](C)CC)C(C)C)[C@@H](C)CC)[C@@H](C)CC)C(C)C)C(C)C)[C@@H](C)CC [Polypeptide P3-4]
Increase multiple (fold increase in the inhibitory effect compared to the polypeptide P3) [1]: 3.6 | IC50 [1]: 220 nM | Increase multiple (fold increase in the inhibitory effect compared to the polypeptide P3) [2]: 1.4 | IC50 [2]: 550 nM | Increase multiple (fold increase in the inhibitory effect compared to the polypeptide P3) [3]: 1.6 | IC50 [3]: 480 nM | inhibitory effect compared with the polypeptide P3 (in words) [4]: improved to varying degrees | Increase multiple (fold increase in the inhibitory effect compared to the polypeptide P3) [5]: 2.6 | IC50 [5]: 300 nM | Increase multiple (fold increase in the inhibitory effect compared to the polypeptide P3) [6]: 4.0 | IC50 [6]: 200 nM | Increase multiple (fold increase in the inhibitory effect compared to the polypeptide P3) [7]: 1.3 | IC50 [7]: 590 nM

CC[C@H](C)[C@H](N)C(=O)N[C@@H](CO)C(=O)NCC(=O)N[C@H](C(=O)N[C@@H](CC(N)=O)C(=O)N[C@@H](C)C(=O)N[C@@H](CO)C(=O)N[C@H](C(=O)N[C@H](C(=O)N[C@@H](CC(N)=O)C(=O)N[C@H](C(=O)N[C@@H](CCC(N)=O)C(=O)N[C@@H](CCCCN)C(=O)N[C@@H](CCC(=O)O)C(=O)N[C@H](C(=O)N[C@@H](CC(=O)O)C(=O)N[C@@H](CCCNC(=N)N)C(=O)N[C@@H](CC(C)C)C(=O)N[C@@H](CC(N)=O)C(=O)N[C@@H](CCC(=O)O)C(=O)N[C@H](C(=O)N[C@@H](C)C(=O)N[C@@H](CCCCN)C(=O)N[C@@H](CCC(=O)O)C(=O)N[C@@H](CC(C)C)C(=O)N[C@@H](CC(N)=O)C(=O)N[C@@H](CCC(=O)O)C(=O)N[C@@H](CO)C(=O)N[C@@H](CC(C)C)C(=O)N[C@H](C(=O)N[C@@H](CC(=O)O)C(=O)N[C@@H](CC(C)C)C(=O)N[C@@H](CCC(N)=O)C(=O)N[C@@H](CCC(=O)O)C(=O)N[C@@H](CC(C)C)C(=O)O)[C@@H](C)CC)C(C)C)[C@@H](C)CC)[C@@H](C)CC)C(C)C)C(C)C)[C@@H](C)CC [Polypeptide P3-5]
Increase multiple (fold increase in the inhibitory effect compared to the polypeptide P3) [1]: 1.3 | IC50 [1]: 630 nM | Increase multiple (fold increase in the inhibitory effect compared to the polypeptide P3) [2]: 0.4 | IC50 [2]: 1820 nM | Increase multiple (fold increase in the inhibitory effect compared to the polypeptide P3) [3]: 0.7 | inhibitory effect on the Kappa variant strain compared with P3 (in words) ([3]; Kappa variant strain): slightly higher than that of P3 | IC50 [3]: 1060 nM | inhibitory effect compared with the polypeptide P3 (in words) [4]: decreased slightly | Increase multiple (fold increase in the inhibitory effect compared to the polypeptide P3) [5]: 0.5 | IC50 [5]: 1470 nM | Increase multiple (fold increase in the inhibitory effect compared to the polypeptide P3) [6]: 0.6 | IC50 [6]: 1240 nM | Increase multiple (fold increase in the inhibitory effect compared to the polypeptide P3) [7]: 0.5 | IC50 [7]: 1430 nM
